Test results reported in patent US8932597B2 (priority 2008, dated 2015).

Tested on: anti-M2 human monoclonal antibody Z3G1
Type: binding

Substance | Signal (peptides that bind to Z3G1) | Signal (peptides that show specific binding to Z3G1)
1496 (CEVETPIRNELLTEVETPICVETPIRNEW; epitope peptide; MISC_FEATURE (1)..(1): C is an attachment site for a CLIP; MISC_FEATURE (10)..(10): E is an attachment site for a CLIP; MISC_FEATURE (11)..(11): L is an attachment site for a CLIP; MISC_FEATURE (29)..(29): W is an attachment site for a CLIP) [compound 1496] | 1625 | 
1374 (SLLTEVETPIRNECGC; epitope peptide) [compound 1374] | 1660 | 
1564 (ELLTEVETPIRNEWGCRCNDSSD; epitope peptide) [compound 1564] |  | 2201
1316 (CSLLCEVETPIRNE; epitope peptide) [compound 1316] | 2527 | 
1570 (MLLTEVETPIRNEWGCRCNDSSD; epitope peptide) [compound 1570] |  | 2126
1263 (MRLLTEVETPIRNEWGCRCN; epitope peptide) [compound 1263] | 2519 | 
1389 (SLLCEVETPIRNCWG; epitope peptide) [compound 1389] | 2789 | 
1273 (MSLMTEVETPIRNEWGCRCN; epitope peptide) [compound 1273] | 2804 | 
1309 (MSLLTEVRTPIRNEWGCRCN; epitope peptide) [compound 1309] | 2668 | 
1551 (SLLCEVGSCLTEV; epitope peptide) [compound 1551] |  | 2499
1276 (MSLQTEVETPIRNEWGCRCN; epitope peptide) [compound 1276] | 2792 | 
1324 (MCLLCEVETPIRNE; epitope peptide) [compound 1324] | 2038 | 
1270 (MSLDTEVETPIRNEWGCRCN; epitope peptide) [compound 1270] | 2594 | 
1573 (QLLTEVETPIRNEWGCRCNDSSD; epitope peptide) [compound 1573] |  | 1627
1290 (MSLLPEVETPIRNEWGCRCN; epitope peptide) [compound 1290] | 2728 | 
1562 (SLLCEVGSCLCEC; epitope peptide) [compound 1562] |  | 2614
1383 (CLLTEVECPIRNEWG; epitope peptide) [compound 1383] | 2157 | 
1565 (FLLTEVETPIRNEWGCRCNDSSD; epitope peptide) [compound 1565] |  | 1018
1515 (CETPIRNEWGLLTEVETPICETPIRNEWG; epitope peptide; MISC_FEATURE (1)..(1): C is an attachment site for a CLIP; MISC_FEATURE (10)..(10): G is an attachment site for a CLIP; MISC_FEATURE (11)..(11): L is an attachment site for a CLIP; MISC_FEATURE (29)..(29): G is an attachment site for a CLIP) [compound 1515] |  | 2427
1362 (SLLCEVETPIRCE; epitope peptide) [compound 1362] | 2307 | 
1382 (CLLTEVETCIRNEWG; epitope peptide) [compound 1382] | 2296 | 

Substance | Signal (peptides that bind to Z3G1) | Signal (peptides that show specific binding to Z3G1)
1576 (YLLTEVETPIRNEWGCRCNDSSD; epitope peptide) [compound 1576] |  | 1882
1563 (DLLTEVETPIRNEWGCRCNDSSD; epitope peptide) [compound 1563] |  | 2320
1534 (SLLCEVETPIRNEWGCRCNDSSD; epitope peptide) [compound 1534] |  | 2161
1341 (MSLLCEVGMSLLCEV; epitope peptide) [compound 1341] | 2851 | 
1512 (CTEVETPIRNLLTEVETPICETPIRNEWG; epitope peptide; MISC_FEATURE (1)..(1): C is an attachment site for a CLIP; MISC_FEATURE (10)..(10): N is an attachment site for a CLIP; MISC_FEATURE (11)..(11): L is an attachment site for a CLIP; MISC_FEATURE (29)..(29): G is an attachment site for a CLIP) [compound 1512] |  | 2645
1584 (SLLIEVETPIRNEWGCRCNDSSD; epitope peptide) [compound 1584] |  | 1899
1443 (CTEVETPIRNLLTEVETPICLTEVETPIR; epitope peptide; MISC_FEATURE (1)..(1): C is an attachment site for a CLIP; MISC_FEATURE (10)..(10): N is an attachment site for a CLIP; MISC_FEATURE (11)..(11): L is an attachment site for a CLIP; MISC_FEATURE (29)..(29): R is an attachment site for a CLIP) [compound 1443] | 2213 | 
1308 (MSLLTEVPTPIRNEWGCRCN; epitope peptide) [compound 1308] | 2380 | 
1301 (MSLLTEVFTPIRNEWGCRCN; epitope peptide) [compound 1301] | 1858 | 
1585 (SLLKEVETPIRNEWGCRCNDSSD; epitope peptide) [compound 1585] |  | 2611
1253 (MFLLTEVETPIRNEWGCRCN; epitope peptide) [compound 1253] | 1707 | 
1577 (SLDTEVETPIRNEWGCRCNDSSD; epitope peptide) [compound 1577] |  | 1505
1560 (SLLCEVGCSCLCEV; epitope peptide) [compound 1560] |  | 2112
1313 (CMSLLCEVETPIRNE; epitope peptide) [compound 1313] | 2582 | 
1281 (MSLLEEVETPIRNEWGCRCN; epitope peptide) [compound 1281] | 2805 | 
1514 (CVETPIRNEWLLTEVETPICETPIRNEWG; epitope peptide; MISC_FEATURE (1)..(1): C is an attachment site for a CLIP; MISC_FEATURE (10)..(10): W is an attachment site for a CLIP; MISC_FEATURE (11)..(11): L is an attachment site for a CLIP; MISC_FEATURE (29)..(29): G is an attachment site for a CLIP) [compound 1514] |  | 2575
1583 (SLLHEVETPIRNEWGCRCNDSSD; epitope peptide) [compound 1583] |  | 2462
1350 (MSLLCEVGMCLCTCV; epitope peptide) [compound 1350] | 2664 | 
1296 (MSLLYEVETPIRNEWGCRCN; epitope peptide) [compound 1296] | 2464 | 
1252 (MELLTEVETPIRNEWGCRCN; epitope peptide) [compound 1252] | 2679 | 
